From patent US20210145838A1, “SELECTIVE PDE4D INHIBITORS AGAINST DEMYELINATING DISEASES” (Universiteit Hasselt, priority 2018, published 2021)

System: demyelinated cerebellar brain slices
Experiment: Ex vivo (re)myelination in lysolecithin-demyelinated cerebellar brain slices
Type: cell-based, mouse
Conditions: 14-days treatment, vs vehicle
Protocol: FIG. 6: Inhibition of PDE4 by roflumilast induces (re)myelination in demyelinated brain slices. Mouse brain slices ([…]) were trimmed from the cerebellum of p10 C57bl6 pups. After 1 week in culture, brain slices were demyelinated using lysolecithin (16 h) and subsequently treated for 14 days with 5 μM roflumilast or vehicle (0.1% DMSO). Treatment was repeated every 2 days with a 60% medium replenishment. Brain slices were fixated using 4% paraformaldehyde and stained for MBP, neurofilament and counterstained with the nuclear DAPI dye. Three slices per animal were quantified for % myelinated axons (n:2/group).
FIG. 7: Inhibition of PDE4D by gebr32a induces (re)myelination in demyelinated brain slices. Mouse brain slices (370 μM) were trimmed from the cerebellum of p10 C57bl6 pups. […] Three slices per animal were quantified for % myelinated axons (n:2/group). […]
Organotypic cerebellar brain slices were fixed in 4% paraformaldehyde at room temperature for 40 minutes and incubated with primary antibodies diluted in blocking buffer (5% bovine serum albumin (BSA) and 0.05% Tween 20 in PBS) for 4 h at room temperature. […] Quantification was done using Fiji ImageJ by counting the percentage of myelinated axons crossing a predefined cross-sectional path.

Row | SMILES | MBP alignment with neurofilament (% myelinated axons) (0.5 μM) | MBP alignment with neurofilament (% myelinated axons) (5 μM)
1 | OC(CN1CCOCC1)Cn1ccc(-c2ccc(OC(F)F)c(OC3CCCC3)c2)n1 (centres unmarked) [Gebr32a] | four-fold increase | –
2 | O=C(Nc1c(Cl)cncc1Cl)c1ccc(OC(F)F)c(OCC2CC2)c1 [roflumilast] | – | four-fold increase
